The results in this text go back to patent US12338256B2, “Aza-tetracyclic oxazepine compounds and uses thereof” (Genentech, Inc., priority 2022, dated 2025).

Holding throughout (assay type): cell-based
Experiment [1] has as its system AsPC-1 (homozygous mutant KRAS G12D human pancreatic cell line). In words: KRAS 3D-Cell Proliferation Assay, AsPC-1 (Example 503). The settings on record: AsPC-1 3D culture, 7 days, CellTiter-Glo 3D, read-out: Prolif AsPC-1 3D ATP IC50. As for the experimental part: Example 503: KRAS 3D-Cell Proliferation Assays. Cellular potencies of compounds are assessed by evaluating inhibition of proliferation in 3D cultures of homozygous mutant KRAS G12D human pancreatic cell lines (AsPC-1 and HPAC) as compared to a KRAS wild type human lung adenocarcinoma cell line (PC-9 and/or H1975). Cells are seeded into 384-well black round-bottom, ultra-low attachment assay plates in 50 uL cell growth medium (RPMI-1640 with 10% fetal bovine serum and 2 mM L-glutamine). After overnight incubation at 37° C. and 5% CO2, compounds solubilized in DMSO are added as dilution series to the wells in a total volume of 150 nL (0.3% DMSO final). The cells are incubated for 7 days at 37° C. and 5% CO2. Cell proliferation is quantitated by addition of 40 uL/well of CellTiter-GloÒ 3D (Promega), and the well contents are mixed 20× at high speed using liquid handling automation workstation (Bravo with 384-well head) and centrifuged at 1500 rpm for 2 minutes to eliminate bubbles. This reagent in combination with mechanical disruption releases the cellular ATP to promote activity in a luciferase-based enzyme/substrate chemiluminescent detection system. After a 30-minute incubation under ambient conditions with shaking and an additional 10 minutes without shaking, the luminescence is read on a plate reader (e.g., EnVision [PerkinElmer]). The results are normalized to percent inhibition based on the following control samples: DMSO (0% inhibition) and 1 μM staurosporine (100% inhibition). The normalized luminescence results are plotted against compound concentration, and the data are fit to a 4-parameter Hill equation to determine the IC50 values.

The subject of experiment [2] is HPAC (homozygous mutant KRAS G12D human pancreatic cell line). The experiment in a line: KRAS 3D-Cell Proliferation Assay, HPAC (Example 503). The settings on record: Homo sapiens, HPAC, 168 h, HPAC 3D culture, 7 days, CellTiter-Glo 3D; read-out: Prolif HPAC 3D ATP IC50. In short, it runs like this: (§1)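 KRAS G12D homozygous pancreatic lines and KRAS wild-type lung lines grown as 3D cultures in ultra-low-attachment wells in RPMI-1640/10% FBS, dosed after overnight with compound dilution series (0.3% DMSO final) for 7 days at 37 °C. ATP read by CellTiter-Glo 3D luminescence; IC50 from 4-parameter Hill fit, normalized to DMSO and 1 μM staurosporine.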
A general note: ATP-based viability assays read luminescence as a measure of living cells.

The test system of experiment [3] is H1975 (KRAS wild type human lung adenocarcinoma cell line). The experiment in a line: KRAS 3D-Cell Proliferation Assay, H1975 (Example 503). The settings on record: Homo sapiens, NCI-H1975, 168 h, H1975 3D culture, 7 days, CellTiter-Glo 3D; read-out: Prolif H1975 3D ATP IC50. Summed up:
as §1

Like-named read-outs stand apart in the source and are kept apart here. Bounds are passed on as bounds.

Turning to `Cc1c(F)c(N)cc(-c2nc3c4c(nc(OCC56CCN(C)C5COC6)nc4c2F)N2C[C@H]4CC[C@H](N4)[C@H]2[C@H](C)O3)c1C(F)(F)F` (single isomer, unassigned) [258 (isomer 1)], the IC50 (commonly the concentration that inhibits the measured activity by half) in experiment [1] (Homo sapiens, ASPC1, 168 h) is 8.1 nM; in experiment [2], 5 nM; in experiment [3], 1560 nM.

For the molecule `Cc1nc(N)c(F)c(-c2nc3c4c(nc(OC[C@@]56CCCN5C[C@H](F)C6)nc4c2F)N2C[C@H]4CC[C@H](N4)[C@H]2[C@H](C)O3)c1C(F)(F)F` [Compound 194, 3-Fluoro-4-((5S,5aS,6S,9R)-1-fluoro-12-(((2R,7aS)-2-fluorotetrahydro-1H-pyrrolizin-7a(5H)-yl)methoxy)-5-methyl-5a,6,7,8,9,10-hexahydro-5H-4-oxa-3,10a,11,13,14-pentaaza-6,9-methanonaphtho[1,8-ab]heptalen-2-yl)-6-methyl-5-(trifluoromethyl)pyridin-2-amine], the IC50 in experiment [1] (Homo sapiens, ASPC1, 168 h) was 2.7 nM; in experiment [2] it was 4.99 nM; in experiment [3], 919 nM. In the case of `Cc1cc(N)c(F)c(-c2nc3c4c(ncnc4c2Cl)N2C[C@H]4CC[C@H](N4)[C@H]2[C@H](C)O3)c1C(F)(F)F` (atropisomer, axis not shown) [Compound 95, 3-((5S,5aS,6S,9R)-1-chloro-5-methyl-5a,6,7,8,9,10-hexahydro-5H-4-oxa-3,10a,11,13,14-pentaaza-6,9-methanonaphtho[1,8-ab]heptalen-2-yl)-2-fluoro-5-methyl-4-(trifluoromethyl)aniline], in experiment [1] (Homo sapiens, ASPC1, 168 h), the 50% inhibitory concentration (IC50) is 200 nM. Still for that read-out and setting: for `Cc1c(F)c(N)cc(-c2nc3c4c(nc(OCC5COCC6CCCN65)nc4c2F)N2CC4CCC(N4)C2C(C)O3)c1C(F)(F)F` (single isomer, unassigned) [121 (isomer 2)] the value was 41 nM. For `C[C@@H]1Oc2nc(-c3c(Cl)c(N)c(F)c(F)c3C(F)(F)F)c(F)c3nc(OC[C@@]45CCCN4C[C@H](F)C5)nc(c23)N2C[C@H]3CC[C@H](N3)[C@@H]12` (atropisomer, axis not shown; (aS)) [Compound 106, 2-Chloro-5,6-difluoro-3-((5S,5aS,6S,9R)-1-fluoro-12-(((2R,7aS)-2-fluorotetrahydro-1H-pyrrolizin-7a(5H)-yl)methoxy)-5-methyl-5a,6,7,8,9,10-hexahydro-5H-4-oxa-3,10a,11,13,14-pentaaza-6,9-methanonaphtho[1,8-ab]heptalen-2-yl)-4-(trifluoromethyl)aniline], the half-maximal inhibitory concentration (IC50) in experiment [1] (Homo sapiens, ASPC1, 168 h) is 5.4 nM; in experiment [3] it was 770 nM.

As for `Cc1c(F)c(N)cc(-c2nc3c4c(nc(OCC56CCCC5N(C)CCC6)nc4c2F)N2C[C@H]4CC[C@H](N4)[C@H]2[C@H](C)O3)c1C(F)(F)F` (single isomer, unassigned) [126 (isomer 1)], the half-maximal inhibitory concentration (IC50) in experiment [1] (Homo sapiens, ASPC1, 168 h) stood at 0.6 nM. Consider `Cc1c(F)c(N)cc(-c2nc3c4c(nc(OCC56CCCN5CC(F)C6F)nc4c2F)N2C[C@H]4CC[C@H](N4)[C@H]2[C@H](C)O3)c1C(F)(F)F` (single isomer, unassigned) [143 (isomer 2)], for which the IC50 in experiment [1] (Homo sapiens, ASPC1, 168 h) stood at 4.1 nM. With `Cc1c(F)c(N)cc(-c2nc3c4c(nc(OCC56CCN5CC(F)(F)C6)nc4c2F)N2C[C@H]4CC[C@H](N4)[C@H]2[C@H](C(F)(F)F)O3)c1C(F)(F)F` (single isomer, unassigned) [263 (diast. 1)], the 50% inhibitory concentration (IC50) in experiment [1] (Homo sapiens, ASPC1, 168 h) is 7.1 nM. Regarding `Cc1cc(N)c(F)c(-c2nc3c4c(nc(OCC56CCN5CC(F)(F)C6)nc4c2F)N2C[C@H]4CC[C@H](N4)[C@H]2[C@H](C)O3)c1` (stereo in doubt) [Compound 23, 3-((5S,5aS,6S,9R)-12-((3,3-difluoro-1-azabicyclo[3.2.0]heptan-5-yl)methoxy)-1-fluoro-5-methyl-5a,6,7,8,9,10-hexahydro-5H-4-oxa-3,10a,11,13,14-pentaaza-6,9-methanonaphtho[1,8-ab]heptan-2-yl)-2-fluoro-5-methylaniline], the half-inhibitory concentration (IC50) in experiment [1] was at least 20000 nM; in experiment [1] (Homo sapiens, ASPC1, 168 h), 14000 nM. For `Cc1c(F)c(N)cc(-c2nc3c4c(nc(OC[C@]5(CN6CC7(COC7)C6)CC5(F)F)nc4c2F)N2C[C@H]4CC[C@H](N4)[C@H]2[C@H](C(F)(F)F)O3)c1C(F)(F)F` [255 a], in experiment [1], the 50% inhibitory concentration (IC50) stood at 6.6 nM.

For `Cc1nc(N)cc(-c2nc3c4c(nc(OCC5(CN6CC(C(F)F)C6)CC5)nc4c2F)N2C[C@H]4CC[C@H](N4)[C@H]2[C@H](C)O3)c1C(F)(F)F` [Compound 274, 4-((5S,5aS,6S,9R)-12-((1-((3-(difluoromethyl)90eptalene-1-yl)methyl)cyclopropyl)methoxy)-1-fluoro-5-methyl-5a,6,7,8,9,10-hexahydro-5H-4-oxa-3,10a,11,13,14-pentaaza-6,9-methanonaphtho[1,8-ab]heptalene-2-yl)-6-methyl-5-(trifluoromethyl)pyridin-2-amine], the 50% inhibitory concentration (IC50) came to 7.55 nM in experiment [2] and 1070 nM in experiment [3]. The like results for `Cc1c(F)c(N)cc(-c2nc3c4c(nc(OC[C@@]5(CC(F)F)CCCN5C)nc4c2F)N2C[C@H]4CC[C@H](N4)[C@H]2[C@H](C)O3)c1C(F)(F)F` (single isomer, unassigned) [150 (isomer 1)] were, in that order, 13.7 nM and 3770 nM. Take `COC1(C(F)F)CN(CC2(COc3nc4c5c(nc(-c6cc(N)nc(C)c6C(F)(F)F)c(F)c5n3)O[C@@H](C)[C@@H]3[C@@H]5CC[C@H](CN43)N5)CC2)C1` [Compound 271, 4-((5S,5aS,6S,9R)-12-((1-((3-(difluoromethyl)-3-methoxyazetidin-1-yl)methyl)cyclopropyl)methoxy)-1-fluoro-5-methyl-5a,6,7,8,9,10-hexahydro-5H-4-oxa-3,10a,11,13,14-pentaaza-6,9-methanonaphtho[1,8-ab]heptalene-2-yl)-6-methyl-5-(trifluoromethyl)pyridin-2-amine]: the IC50 in experiment [2] worked out at 4.49 nM; in experiment [3] it was 10900 nM. As for `Cc1nc(N)cc(-c2nc3c4c(nc(OC[C@@]56CCCN5C[C@H](F)C6)nc4c2F)N2C[C@H]4CC[C@H](N4)[C@H]2[C@H](C)O3)c1CC(F)F` [Compound 189, 5-(2,2-Difluoroethyl)-4-((5S,5aS,6S,9R)-1-fluoro-12-(((2R,7aS)-2-fluorotetrahydro-1H-pyrrolizin-7a(5H)-yl)methoxy)-5-methyl-5a,6,7,8,9,10-hexahydro-5H-4-oxa-3,10a,11,13,14-pentaaza-6,9-methanonaphtho[1,8-ab]heptalene-2-yl)-6-methylpyridin-2-amine], the IC50 in experiment [2] came to 95.4 nM; in experiment [3] it was 20000 nM. The like results for `Cc1nc(N)cc(-c2nc3c4c(nc(OCC5(CN6CCC(F)(F)C6)CC5)nc4c2F)N2C[C@H]4CC[C@H](N4)[C@H]2[C@H](C)O3)c1C(F)(F)F` [Compound 288, 4-((5S,5aS,6S,9R)-12-((1-((3,3-difluoropyrrolidin-1-yl)methyl)cyclopropyl)methoxy)-1-fluoro-5-methyl-5a,6,7,8,9,10-hexahydro-5H-4-oxa-3,10a,11,13,14-pentaaza-6,9-methanonaphtho[1,8-ab]heptalene-2-yl)-6-methyl-5-(trifluoromethyl)pyridin-2-amine] were, in that order, 18.8 nM and 9810 nM. With `Cc1c(F)c(N)cc(-c2nc3c4c(nc(OCC5CC(F)C6CCCN56)nc4c2F)N2C[C@H]4CC[C@H](N4)[C@H]2[C@H](C)O3)c1C(F)(F)F` (single isomer, unassigned) [160 (diast. 1)], the values for the IC50 in experiment [2] and in experiment [3] were 8.07 nM and 1000 nM, respectively.
